Assays:
[1] = target: T1, human TRPV3 (Homo sapiens, UniProt Q8NET8); assay: In vitro antagonism of recombinant human TRPV3 activation (FLIPR Tetra calcium assay, 2-APB as agonist); assay type: cell-based; details: HEK293 cells stably expressing human TRPV3; 2-APB 80 μM; range class; read-out: IC50 (reported range)
T1 construct: expressed in transfected cells
T1 sequence (Q8NET8 1-790): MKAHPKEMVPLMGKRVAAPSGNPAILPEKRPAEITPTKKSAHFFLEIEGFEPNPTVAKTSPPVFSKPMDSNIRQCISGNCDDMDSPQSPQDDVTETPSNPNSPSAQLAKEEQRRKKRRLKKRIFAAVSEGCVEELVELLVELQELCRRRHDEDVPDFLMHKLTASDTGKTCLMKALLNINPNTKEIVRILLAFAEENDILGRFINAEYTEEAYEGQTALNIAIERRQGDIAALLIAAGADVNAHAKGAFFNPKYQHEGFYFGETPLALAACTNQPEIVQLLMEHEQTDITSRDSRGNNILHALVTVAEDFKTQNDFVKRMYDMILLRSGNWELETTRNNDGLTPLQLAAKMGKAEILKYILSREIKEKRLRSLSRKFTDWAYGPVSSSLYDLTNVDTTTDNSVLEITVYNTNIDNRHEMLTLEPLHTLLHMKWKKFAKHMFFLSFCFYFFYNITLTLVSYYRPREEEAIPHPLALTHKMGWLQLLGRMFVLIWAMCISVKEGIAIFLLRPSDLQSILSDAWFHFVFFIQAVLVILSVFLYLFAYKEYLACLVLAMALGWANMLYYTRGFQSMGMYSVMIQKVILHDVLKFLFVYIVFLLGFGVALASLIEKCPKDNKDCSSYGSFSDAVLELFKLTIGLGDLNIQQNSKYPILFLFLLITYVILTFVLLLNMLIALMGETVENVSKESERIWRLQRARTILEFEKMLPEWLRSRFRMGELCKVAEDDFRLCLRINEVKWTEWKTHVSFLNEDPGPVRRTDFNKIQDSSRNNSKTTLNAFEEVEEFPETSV
Method in brief: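 HEK293 cells stably expressing human TRPV3, loaded with Calcium-4 dye for 90-120 min; compound added 3 min before 2-APB at 80 μM (its EC80). Fluorescence (max minus min) over 10 min expressed as % of maximal 2-APB response without antagonist; IC50 mostly averaged from n≧2 runs.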

[2] = In vitro human microsomal stability assay; assay type: in vitro ADME; details: human, 0.5 h, 0.5 μM, pH 7.4
Method in brief: (§1)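 Liver microsomes: Sprague-Dawley rat for rat assay, human for human assay; 37 °C; NADPH cofactor, also spiked into time-zero plates.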

[3] = In vitro rat microsomal stability assay; assay type: in vitro ADME, rat (Sprague-Dawley); details: Sprague-Dawley, rat, 0.5 h, 0.5 μM, pH 7.4
Method in brief: as §1

IC50 [1] [nM]	HUMAN MICROSOMAL STABILITY (% REMAINING AFTER 30 MINUTES) [2] [%]	RAT MICROSOMAL STABILITY (% REMAINING AFTER 30 MINUTES) [3] [%]	SMILES
1100 to 5000	73	0.012	OC(c1ccccn1)C1(c2ccccc2F)CCCO1 (stereo not drawn) [Example 103, (syn)-[2-(2-fluorophenyl)tetrahydrofuran-2-yl](pyridin-2-yl)methanol]
50 to 500	15	0.42	OC(c1ccccn1)C1(c2cccc(Cl)c2)CCCO1 (stereo not drawn) [Example 104, (anti)-[2-(3-chlorophenyl)tetrahydrofuran-2-yl](pyridin-2-yl)methanol]
5100 to 20000	42	0.040	OC(c1ccccn1)C1(c2cccc(Cl)c2)CCCO1 (stereo not drawn) [Example 105, (syn)-[2-(3-chlorophenyl)tetrahydrofuran-2-yl](pyridin-2-yl)methanol]
50 to 500	3.9	1.6	OC(c1ccccn1)C1(c2cccc(C(F)(F)F)c2)CCCO1 (stereo not drawn) [Example 106, (anti)-pyridin-2-yl{2-[3-(trifluoromethyl)phenyl]tetrahydrofuran-2-yl}-methanol]
1100 to 5000	31	0.23	OC(c1ccccn1)C1(c2cccc(C(F)(F)F)c2)CCCO1 (stereo not drawn) [Example 107, (syn)-pyridin-2-yl{2-[3-(trifluoromethyl)phenyl]tetrahydrofuran-2-yl}-methanol]
501 to 1000	13	4.9	OC(c1ccccn1)C1(c2ccc(F)c(F)c2)CCCO1 (stereo not drawn) [Example 108, (anti)-[2-(3,4-difluorophenyl)tetrahydrofuran-2-yl](pyridin-2-yl)methanol]
5100 to 20000	45	0.74	OC(c1ccccn1)C1(c2ccc(F)c(F)c2)CCCO1 (stereo not drawn) [Example 109, (syn)-[2-(3,4-difluorophenyl)tetrahydrofuran-2-yl](pyridin-2-yl)methanol]

Further lines, the compound ahead of its results:

SMILES	IC50 [1] [nM]	HUMAN MICROSOMAL STABILITY (% REMAINING AFTER 30 MINUTES) [2] [%]	RAT MICROSOMAL STABILITY (% REMAINING AFTER 30 MINUTES) [3] [%]
OC(c1ccccn1)C1(c2ccc(OC(F)(F)F)cc2)CCCO1 (stereo not drawn) [Example 95, (syn)-pyridin-2-yl{2-[4-(trifluoromethoxy)phenyl]tetrahydrofuran-2-yl}-methanol]	1100 to 5000	57	0.61
OC(c1ccccn1)C1(c2ccccc2OC(F)(F)F)CCCO1 (stereo not drawn) [Example 96, (anti)-pyridin-2-yl{2-[2-(trifluoromethoxy)phenyl]tetrahydrofuran-2-yl}-methanol]	1100 to 5000	0.68	0.15
OC(c1ccccn1)C1(c2ccccc2OC(F)(F)F)CCCO1 (stereo not drawn) [Example 97, (syn)-pyridin-2-yl{2-[2-(trifluoromethoxy)phenyl]tetrahydrofuran-2-yl}-methanol]	50 to 500	6.4	0.16
OC(c1ccccn1)C1(c2ccc(Cl)c(Cl)c2)CCCO1 (stereo not drawn) [Example 98]	50 to 500	7.6	0.020
OC(c1ccccn1)C1(c2ccc(Cl)c(Cl)c2)CCCO1 (stereo not drawn) [Example 99, (syn)-[2-(3,4-dichlorophenyl)tetrahydrofuran-2-yl](pyridin-2-yl)methanol]	1100 to 5000	30	0.17
OC(c1ccccn1)C1(c2cccc(F)c2)CCCO1 (stereo not drawn) [Example 100, (anti)-[2-(3-fluorophenyl)tetrahydrofuran-2-yl](pyridin-2-yl)methanol]	501 to 1000	26	2.9

Source: patent US8772500B2, “TRPV3 modulators” (AbbVie Inc., priority 2011, dated 2014)
